# “And” between values parts separate entries of the source, which are not always exact repeats. Equal values may be shown once. Read-outs that look alike come from different tables or passages of the source.
# Tests used:
# [1] = Minipig intraduodenal (id) bioavailability of oil formulations versus iv parent complex; assay type: in vivo, Gottingen minipig; details: id 10 mg/kg, 10% by weight formulation, vs 1 mg/kg iv parent, AUC0->24 h
# Experimental: Compounds were screened for oral bioavailability by injecting the formulated prodrugs directly into the duodenum (intraduodenal or id administration) of the minipig test subjects, thus bypassing the acidic environment of the stomach and thereby eliminating potentially misleading oral bioavailability results that could arise from alteration of the test article drug in the acid environment of the stomach.
# The studies were conducted at Xenometrics LLC (Stillwell, Kans.) and the id bioavailability was determined using various axial ligand derivative complexes of GC4419, GC4444, GC4403 and GC4401. […] The following formula is then used to calculate the % oral bioavailability via intestinal absorption of the test article drug complex:
# % Oral Bioavailability=AUC0->24 h(id)×(1/dose (mg/kg))÷AUC0->24 hr (iv)*
# *Where the iv dose is 1 mg of test article drug per kilogram body weight of the mini-pig, and the dose administered id is 10 mg of test article drug per kg body weight of the mini-pig.
# Male Gottingen minipigs (4-5 mo old, 9-12 kg weight) were purchased from Marshall BioResources and housed at Xenometrics. […] The distal end was exteriorized with a reusable accessible hub (see surgical details below). During a recovery period of at least 2 weeks the minipigs were handled daily to acclimate them to the test procedures, i.e., id dosing and blood collections. For each experiment, each minipig received a test article drug dissolved or suspended in an excipient vehicle. […] All dosing experiments were conducted in fasted animals. Food was withdrawn from the minipigs 16 hours before dosing. The minipigs had ad libitum access to water. Dosed minipigs were allowed access to food 6 hour after dosing. The test article was administered at a dose of 10 mg/kg parent drug in 0.1 mL/kg vehicle (e.g., 1.5 mL in 15 kg minipig) as a bolus injection (˜1 minute) via the id cannula. The actual amount of total test article drug administered varied with the formula weight of the prodrug. An equal volume of excipient vehicle was used to flush the cannula after the test article was administered. Approximately 6 hours later, corn oil was used to flush the cannula. After approximately 24 hours post-dose, the catheter was flushed with sterile saline solution and capped. At the following time-points 0.25, 0.5, 1, 2, 4, 8, 24 and 48 hour post-injection, 2 mL blood samples were collected by cranial vena cava puncture (4 mL Sodium heparin Vacutainer, 20 g 1.5″ needle) after the skin surface was wiped with ethanol. The minipig was placed in a sling in a recumbent position without anesthesia for the collection of blood samples. The minipigs were never used more than once per 7 days for experimentation. The blood samples were kept on ice until processed for plasma. Blood samples were centrifuged at 1200×g for ten minutes at 4° C. and plasma samples were transferred to 96 well plate tubes, capped and stored at −20° C. until shipment on dry ice to the analytical laboratory used for measuring the concentration of drug in the plasma. The concentration of the parent manganese pentaaza macrocylic ring complex (independent of the composition of the axial ligands) was measured in plasma using a validated HPLC/MS/MS method that is linear between 50 ng/mL and 20,000 ng/mL.
# The oils used for preparing the dosing solutions were used as supplied from commercial sources. The Capmul MCM (NF) is a mixture of mono/diglycerides of caprylic/capric acids and was supplied by ABITEC Corporation, Janesville, Wis. The Miglyol 812 N is a mixture of caprylic/capric acid triglycerides and was supplied by Cremer Oleo Division, Eatontown, N.J. Labrafil M 2125 CS (NF) is chemically defined to be linoleoyl polyoxyl-6 glycerides NF and was supplied by Gattefosse, SAINT-PRIEST Cedex, France. Peceol is chemically defined to be the monoglyceride, glyceryl monooleate NF, and was supplied by Gattefosse, SAINT-PRIEST Cedex, France. […]
# [2] = Phase 1b trial of intravenous GC4419: toxicity and plasma pharmacokinetics; assay type: in vivo, human
# Experimental: (§1) The toxicity of GC4419 administered intravenously was evaluated as a part of a phase 1b trial of the use of GC4419 in the treatment of oral mucositis (OM) in patients having oral cavity or oropharyngeal carcinoma. The bioavailability by intravenous administration is presumed to represent 100% systemic bioavailability. In particular, the patients tested included serial 3-6 patient cohorts, with locally-advanced, non-metastatic oral cavity or oropharyngeal carcinoma. The study called for intensity-modulated (IM)RT to approx. 70 Gy total (>50 Gy to >2 oral sites), 2.0-2.2 Gy/fx M-F plus CDDP; plus escalating doses of GC4419, via 60-minute IV infusion, M-F for 3-7 weeks, ending <60 minutes before IMRT. WHO grade of oral mucositis was assessed twice weekly, and levels of GC4419 were measured in plasma by LC/MS. Circulating cytokines (Cy) mechanistically related to oral mucositis were also assayed.
# Furthermore, or Phase 1 trials for chemoradiotherapy-induced mucositis (OM) in patients with mouth or oropharyngeal carcinoma, treatment was provided but certain adverse effects (e.g., due to systemic toxicity) occurred. The dosing regimen included dosing with GC4419 intravenously over a period of 60 minutes, ending 60 minutes before an IMRT fraction, according to the protocol as described above. The most common adverse effects were nausea, fatigue, leukopenia, dry mount, dysgeusia and vomiting, and most were attributable to chemo or radiation therapy. A true “maximum dose” was not reached in this study. […] 16% of patients receiving 90 mg/day had grade 3 nausea, and 25% of those receiving 112 mg/day had grade 3 nausea, with those receiving 112 mg/day also experiencing some grade 3 vomiting (i.e., 25%).
# [3] = Phase 1b trial of intravenous GC4419: oral mucositis outcome; assay type: in vivo, human; details: IV GC4419 with IMRT plus CDDP; compared with historical controls
# Experimental: as §1
# [4] = Plasma pharmacokinetics after intraduodenal or intravenous dosing in female rats; assay type: in vivo; details: for plasma concentrations and Cmax: rat, in vivo
# Experimental: Therefore, following equivalent doses of GC4403, the systemic exposure to an ID dose in this Example was at least 30-100 times lower than it would be from an IV dose. […] This is important since the No Observable Adverse Effect Level (NOAEL) for chronic repeated IV dosing of GC4403 in the rat was previously shown to be only 3 mg/kg/day, and at this time, GC4403 has only be administered successfully to humans by the IV route. Thus, GC4403 or another related dismutase mimetic, such as GC4419, administered as an appropriate oral dosage form delivering drug directly into the small intestine may be an effective treatment for Crohn's Disease, ulcerative colitis and related diseases in humans.
# [5] = Rat indomethacin model of intestinal inflammation (Crohn's Disease); assay type: in vivo, Female Lewis rats
# Experimental: A study was conducted to determine the potential efficacy of GC4403 delivered locally to the intestine in a model of intestinal inflammation (Crohn's Disease) induced by the administration of indomethacin. Female Lewis rats received cannulae surgically implanted in the duodenum with the opposite end exteriorized, and were allowed to recover. The cannulae enabled the direct injection of GC4403 or vehicle into the duodenum (intraduodenal or ID dosing) in these animals; however, uncannulated female Lewis rats were used for dosing groups not receiving ID dosing. Rats were administered indomethacin on experimental days 0 and 1 (9 mg/kg/d; subcutaneously) to induce lesions similar to those occurring in Crohn's disease in the small intestine (SI). The therapeutic interventions outlined in Table II were administered in 9 dosing groups of 10 (IV) or 12 (ID) animals each on days 0 through 3:
# The rats were sacrificed and necropsied on day 4, and 10 cm sections from the middle portion of the SI (jejunum) were weighed and examined by histopathology for inflammation. The weight of a 10 cm section serves as a surrogate marker for comparing inflammation and edema across the dosing groups.
# [6] = chronic repeated IV dosing, rat; cited from earlier work
# [7] = 30-minute iv infusion in humans; cited from earlier work
# [8] = Maximum tolerated dose by 30-minute iv infusion in humans; details: in a 70-kg subject
# [9] = 10 mg/kg IP injection on days 0-3
# [10] = 30 mg/kg ID, direct topical delivery into the intestine
molecule,measurement,setting,value
"CC1NC2CCCCC2NCCNC2CCCCC2NCc2cccc1n2.CCC(=O)[O-].CCC(=O)[O-].[Mn+2] [GC4747, Manganese(II)bis-propionato[6R-Methyl(4aR,13aR,17aR,21aR)-1,2,3,4,4a,5,6,12,13,13a,14,15,16,17,17a,18,19,20,21,21a-Eicosahydro-11,7-nitrilo-7H-dibenzo[b,h][1,4,7,10]tetraazacycloheptadecine-κN5, κN13, κN18, κN21, κN22]-]",Mini-Pig BioA,[1]; Base oil Labrafil M2125 CS,20%
[Cl][Mn][Cl].c1cc2nc(c1)CN[C@H]1CCCC[C@@H]1NCCN[C@H]1CCCC[C@@H]1NC2 [GC4419],"nausea, patients","[2]; 30 mg/day for 14 or 30 doses, IV",86%
same,"nausea, patients","[2]; 50 mg/day for 14 doses, IV",100%
same,"nausea, patients","[2]; 75 mg/day for 14 doses, IV",67%
same,"grade 3 nausea, patients","[2]; 90 mg/day, IV",20% and 16%
same,"Dose-limiting toxicities that occurred, grade 3","[2]; 112 mg daily, 60-minute IV infusion, with IMRT/CDDP",gastroenteritis (3 wks); and vomiting with hyponatremia (5+ wks)
same,"nausea, patients","[2]; 112 mg/day for 14, 20, 25 or 30 doses, IV",89% and 85%
same,Cmax and AUC,"[2]; 60-minute IV infusion, 15-112 mg",dose-proportional
same,plasma t1/2,"[2]; 60-minute IV infusion, patients",~2 h
same,dose limiting toxicity observed at,"[2]; 60-minute IV infusion, grade 3 gastroenteritis at 3 weeks, grade 3 vomiting and hyponatremia at 5+ weeks",112 mg/day
same,GC4419-related toxicity,"[2]; IV, 15-112 mg daily for 3-7 weeks",acceptable
same,maximum dose,"[2]; IV, up to 112 mg/day",not reached
same,facial tingling,[2]; during infusion,"Mild, transient facial tingling was observed"
same,paresthesia,"[2]; patients receiving more than 30 mg/day, IV",Some grade 1-2 paresthesia was also observed
same,Severe OM,[3],"briefer, delayed, less severe, and less frequent than expected"
same,plasma concentrations and Cmax,[4],similarly low plasma concentrations and Cmax as GC4403
same,plasma concentrations and Cmax,[4]; iv,similarly high plasma concentrations and Cmax
"CCCC(=O)[O-].CCCC(=O)[O-].[Mn+2].c1cc2nc(c1)CNC1CCCCC1NCCNC1CCCCC1NC2 [GC4713, Manganese(II)bis-n-Butyrato[(4aS,13aS,17aS,21aS)-1,2,3,4,4a,5,6,12,13,13a,14,15,16,17,17a,18,19,20,21,21a-Eicosahydro-11,7-nitrilo-7H-dibenzo[b,h][1,4,7,10]tetraazacycloheptadecine-κN5, κN13, κN18, κN21, κN22]-]",Mini-Pig BioA,[1]; Base oil Labrafil M2125 CS,21%
same,Mini-Pig BioA,[1]; Base oil Peceol,18%
"Manganese(II)bis-D-phenylglycinato [(4aS,13aS,17aS,21aS)-1,2,3,4,4a,5,6,12,13,13a, 14,15,16,17,17a,18,19,20,21,21a-Eicosahydro-11,7-nitrilo-7H-dibenzo[b,h][1,4,7,10] tetraazacyclo-heptadecine-κN5, κN13, κN18, κN21, κN22]- [GC4721]",Mini-Pig BioA,[1]; Base oil Miglyol 812 N,11.5%^
"O=C([O-])c1ccccc1.O=C([O-])c1ccccc1.[Mn+2].c1cc2nc(c1)CNC1CCCCC1NCCNC1CCCCC1NC2 [GC4712, Manganese(II)bis-Benzoato[(4aS,13aS,17aS,21aS)-1,2,3,4,4a,5,6,12,13,13a,14,15,16,17,17a,18,19,20,21,21a-Eicosahydro-11,7-nitrilo-7H-dibenzo[b,h][1,4,7,10]tetraazacycloheptadecine-κN5, κN13, κN18, κN21, κN22]-]",Mini-Pig BioA,[1]; Base oil Capmul MCM,24%
same,Mini-Pig BioA,[1]; Base oil Maisine 35-1,18%
same,Mini-Pig BioA,[1]; Base oil Peceol,29%
[Cl-].[Cl-].[Mn+2].c1cc2nc(c1)CN[C@@H]1CCCC[C@H]1NCCN[C@@H]1CCCC[C@H]1NC2 [GC4403],jejunal score,[5]; [9],reduced
same,jejunal weight,[5]; [9],reduced
same,reduction in jejunal score,[5]; [10],21%
same,reduction in jejunal weight,[5]; [10],32%
same,mean plasma maximum,"[4]; 3 mg/kg IV dose, separate study, measured 10 min after injection","at least 3,280 ng/mL"
same,mean plasma maximum (Cmax),[4]; 30 mg/kg ID dose,303 ng/mL
same,calculated bioavailability,"[4]; 30 mg/kg ID dose, AUC of ID vs estimated AUC with IV",3.1%
same,expected Cmax extrapolated,[4]; 30 mg/kg IV dose,"approximately 32,800 ng/mL"
same,Cmax of ID dose relative to expected Cmax of same dose IV,[4]; 30 mpk ID vs 30 mg/kg IV (extrapolated),less than 1%
same,"systemic exposure to an ID dose, lower than from an IV dose",[4]; equivalent doses,30-100 times
same,No Observable Adverse Effect Level (NOAEL),[6],3 mg/kg/day
same,maximum tolerated dose,[7],25 mg
same,maximum tolerated dose,[8],roughly 0.35 mg/kg

# From US20210361701A1, “PENTAAZA MACROCYCLIC RING COMPLEXES FOR LOCAL DELIVERY” (Galera Labs, LLC, priority 2017, published 2021)
